This passage reports IC50 and MIC results from ChEMBL document CHEMBL3621040, “Dicarabrol, a new dimeric sesquiterpene from Carpesium abrotanoides L” (Bioorg Med Chem Lett, 2015).

The subject of test [1] is Influenza A virus. In words: Antiviral activity against Influenza A virus H1N1 infected in MDCK cells assessed as protection against virus-induced cytopathic effect after 48 hrs by crystal violet staining. The format is functional, organism-based.
In test [2] the test system is HeLa. The experiment in a line: Cytotoxicity against human HeLa cells after 72 hrs by CCK8 assay. The format is functional, cell-based. A general note: Formazan colour is commonly taken as a measure of viable cells.
The test system of test [3] is U-937. The experiment in a line: Cytotoxicity against human U937 cells after 72 hrs by CCK8 assay. The format is functional, cell-based. To be noted: U-937, 72 h.
For test [4], the system named is Mycobacterium tuberculosis. In words: Antimycobacterial activity against Mycobacterium tuberculosis H37Ra after 7 days by alamar blue dye assay. The format is functional. The settings on record: 168 h.
The subject of test [5] is MOLT-4. The experiment in a line: Cytotoxicity against human MOLT4 cells after 72 hrs by CCK8 assay. The format is functional, cell-based. To be noted: MOLT-4, 72 h.
Test [6] is described as follows: Cytotoxicity against human SGC7901 cells after 72 hrs by CCK8 assay. The settings on record: SGC-7901, 72 h. The format is functional, cell-based.
Test [7] relates to HL-60. The experiment in a line: Cytotoxicity against human HL60 cells after 72 hrs by CCK8 assay. The settings on record: HL-60, 72 h. The format is functional, cell-based.
For test [8], the system named is Influenza A virus. The experiment in a line: Antiviral activity against Influenza A virus H3N2 infected in MDCK cells assessed as protection against virus-induced cytopathic effect after 48 hrs by crystal violet staining. The class given is functional, organism-based. On the technique in general: Cytopathic effects are the visible damage that an infection or toxin causes in cultured cells.

The test system of test [9] is A549. In words: Cytotoxicity against human A549 cells after 72 hrs by CCK8 assay. The class given is functional, cell-based. The settings on record: A549, 72 h.
Test [10] relates to NCI-H1975. In words: Cytotoxicity against human NCI-H1975 cells after 72 hrs by CCK8 assay. The class given is functional, cell-based. The settings on record: NCI-H1975, 72 h.
Test [11] relates to MCF7. In words: Cytotoxicity against human MCF7 cells after 72 hrs by CCK8 assay. The settings on record: MCF7, 72 h. The format is functional, cell-based.
For test [12], the system named is DU-145. The experiment in a line: Cytotoxicity against human DU145 cells after 72 hrs by CCK8 assay. The class given is functional, cell-based. To be noted: DU-145, 72 h.
The subject of test [13] is K562. In words: Cytotoxicity against human K562 cells after 72 hrs by CCK8 assay. The class given is functional, cell-based. The settings on record: K562, 72 h.

SMILES strings stand for the structures. pIC50: −log10 of the molar value. ≈ marks a conversion by molar mass, not a printed value.

By pIC50 is commonly meant the IC50 on a negative log10 scale, so that one unit is a factor of ten. Broadly, the MIC is the least concentration at which growth counts as inhibited. A low value points to a more susceptible organism.

With `C=C1C(=O)O[C@@H]2C[C@]3(C)[C@@H](CCC(C)O)C[C@@]4(C(=O)O[C@@H]5C[C@@H]6[C@@H](CC[C@H](C)O)[C@@H]6C[C@@H]54)[C@@H]3C[C@H]12` (stereo not given in full), the pIC50 in test [1] is 4.80; in [2] it was 6.21; in [3] it was 6.82; in test [5] it was 5.89; in test [6] it was 6.15; in [7], 7.00. The pIC50 is 4.52 in test [8]; 5.57 in [9]; 5.85 in test [10]; 5.48 in [11]; 6.51 in test [12]; 5.92 in [13]. Besides, it took 3.7 µM (≈ 1.8 µg/mL) to inhibit growth in test [4] (MIC).

As to `C=C1C(=O)O[C@H]2C[C@@]3(C)O[C@@H]3CC[C@@]3(C)O[C@@H]3C[C@H]12`, the pIC50 in test [1] was 4.97; in [2], 6.00; in test [3], 6.68; in test [5] it was 5.92; in test [6], 5.19; in test [7], 6.74. The pIC50 in test [8] was 4.94; in test [9] it was 5.70; in test [10] it was 5.27; in [11] it was 5.39; in [12] it was 6.42; in [13], 5.77. The MIC in [4] came out at 6 µM (≈ 1.59 µg/mL).

`NNC(=O)c1ccncc1` [ISONIAZID] came in with an MIC in test [4] of 2 µM (≈ 0.274 µg/mL).

In the case of `CCOC(=O)C1=C[C@@H](OC(CC)CC)[C@H](NC(C)=O)[C@@H](N)C1` [OSELTAMIVIR], the pIC50 was 7.60 in test [1] and 7.82 in test [8].

For the compound `CC(=O)O[C@H]1C(=O)[C@@]2(C)[C@H]([C@H](OC(=O)c3ccccc3)[C@]3(O)C[C@H](OC(=O)[C@H](O)[C@@H](NC(=O)c4ccccc4)c4ccccc4)C(C)=C1C3(C)C)[C@]1(OC(C)=O)CO[C@@H]1C[C@@H]2O` [PACLITAXEL], the pIC50 in [3] is 5.68; in [5], 5.57; in test [6], 5.01; in test [7], 5.42; in test [9] it was 5.68; in test [10], 5.55. Moreover, the results for the pIC50 in test [12] and in test [13] were 5.51 and 5.42, respectively.

Take `C=C1C(=O)O[C@H]2C[C@@H](C)[C@@H]3CC[C@H](O)[C@@]3(C)C[C@H]12` [PSEUDOGUAIANOLIDE]: the pIC50 in test [1] is 4.53; in [2], 5.22; in test [3] it was 5.66; in test [5], 5.26; in test [6] it was 4.66; in test [7], 5.62. Moreover, the pIC50 was 4.33 in test [8]; 5.21 in test [9]; 4.89 in test [10]; 4.96 in [11]; 5.51 in [12]; 4.77 in test [13]. Further, the MIC in test [4] was 7.6 µM (≈ 1.9 µg/mL).
